# Measured values taken from US9597316B2, “Indole compounds for use in treating inflammation and cancer” (BIOVENTURES LLC, priority 2012, dated 2017).
# Tested on: NCI/ADR-RES (Ovarian Cancer)
# Assay: five dose-response growth inhibition/cytotoxicity, NCI/ADR-RES
# Assay type: cell-based, human
# Conditions: not given
row,Structure (SMILES),GI50 [µM]
1,COc1ccc2c(c1)c(C=C1C(=O)NC(=S)NC1=O)cn2C(=O)c1ccccc1Br [Compound 3s],3.23

# Same assay, conditions: read-out: LC50 (the source's name)
row,Structure (SMILES),CC50 [µM]
1,COc1ccc2c(c1)c(C=C1C(=O)NC(=S)NC1=O)cn2C(=O)c1ccccc1Br [Compound 3s],> 100

# Tested on: leukemia cell lines in the panel
# Assay: five dose-response growth inhibition, leukemia cell lines in the panel
# Assay type: cell-based, human
# Conditions: all four leukemia cell lines in the panel; read-out: GI50 values in the range
row,Structure (SMILES),GI50 [µM]
1,COc1ccc2c(c1)c(C=C1C(=O)NC(=S)NC1=O)cn2C(=O)c1ccccc1Br [Compound 3s],2.55 to 4

# Tested on: SF-539 (CNS Cancer)
# Assay: five dose-response growth inhibition/cytotoxicity, SF-539
# Assay type: cell-based, human
# Conditions: not given
row,Structure (SMILES),GI50 [µM]
1,COc1ccc2c(c1)c(C=C1C(=O)NC(=S)NC1=O)cn2C(=O)c1ccccc1Br [Compound 3s],3

# Same assay, conditions: read-out: LC50 (the source's name)
row,Structure (SMILES),CC50 [µM]
1,COc1ccc2c(c1)c(C=C1C(=O)NC(=S)NC1=O)cn2C(=O)c1ccccc1Br [Compound 3s],57.8

# Tested on: SF-268 (CNS Cancer)
# Assay: five dose-response growth inhibition/cytotoxicity, SF-268
# Assay type: cell-based, human
# Conditions: not given
row,Structure (SMILES),GI50 [µM]
1,COc1ccc2c(c1)c(C=C1C(=O)NC(=S)NC1=O)cn2C(=O)c1ccccc1Br [Compound 3s],3.86

# Same assay, conditions: read-out: LC50 (the source's name)
row,Structure (SMILES),CC50 [µM]
1,COc1ccc2c(c1)c(C=C1C(=O)NC(=S)NC1=O)cn2C(=O)c1ccccc1Br [Compound 3s],52.2

# Tested on: HCT-116 (Colon Cancer)
# Assay: five dose-response growth inhibition/cytotoxicity, HCT-116
# Assay type: cell-based, human
# Conditions: not given
row,Structure (SMILES),GI50 [µM]
1,COc1ccc2c(c1)c(C=C1C(=O)NC(=S)NC1=O)cn2C(=O)c1ccccc1Br [Compound 3s],3.76

# Same assay, conditions: read-out: LC50 (the source's name)
row,Structure (SMILES),CC50 [µM]
1,COc1ccc2c(c1)c(C=C1C(=O)NC(=S)NC1=O)cn2C(=O)c1ccccc1Br [Compound 3s],> 100

# Tested on: M14 (Melanoma)
# Assay: five dose-response growth inhibition/cytotoxicity, M14
# Assay type: cell-based, human
# Conditions: not given
row,Structure (SMILES),GI50 [µM]
1,COc1ccc2c(c1)c(C=C1C(=O)NC(=S)NC1=O)cn2C(=O)c1ccccc1Br [Compound 3s],3.52

# Same assay, conditions: read-out: LC50 (the source's name)
row,Structure (SMILES),CC50 [µM]
1,COc1ccc2c(c1)c(C=C1C(=O)NC(=S)NC1=O)cn2C(=O)c1ccccc1Br [Compound 3s],> 100

# Tested on: HCT-15 (Colon Cancer)
# Assay: five dose-response growth inhibition/cytotoxicity, HCT-15
# Assay type: cell-based, human
# Conditions: not given
row,Structure (SMILES),GI50 [µM]
1,COc1ccc2c(c1)c(C=C1C(=O)NC(=S)NC1=O)cn2C(=O)c1ccccc1Br [Compound 3s],3.83

# Same assay, conditions: read-out: LC50 (the source's name)
row,Structure (SMILES),CC50 [µM]
1,COc1ccc2c(c1)c(C=C1C(=O)NC(=S)NC1=O)cn2C(=O)c1ccccc1Br [Compound 3s],89.9

# Tested on: SK-MEL-5 (Melanoma)
# Assay: five dose-response growth inhibition/cytotoxicity, SK-MEL-5
# Assay type: cell-based, human
# Conditions: not given
row,Structure (SMILES),GI50 [µM]
1,COc1ccc2c(c1)c(C=C1C(=O)NC(=S)NC1=O)cn2C(=O)c1ccccc1Br [Compound 3s],3.47

# Same assay, conditions: read-out: LC50 (the source's name)
row,Structure (SMILES),CC50 [µM]
1,COc1ccc2c(c1)c(C=C1C(=O)NC(=S)NC1=O)cn2C(=O)c1ccccc1Br [Compound 3s],> 50

# Tested on: HOP-62 (Non-Small Cell Lung Cancer)
# Assay: five dose-response growth inhibition/cytotoxicity, HOP-62
# Assay type: cell-based, human
# Conditions: not given
row,Structure (SMILES),GI50 [µM]
1,COc1ccc2c(c1)c(C=C1C(=O)NC(=S)NC1=O)cn2C(=O)c1ccccc1Br [Compound 3s],3.59

# Same assay, conditions: read-out: LC50 (the source's name)
row,Structure (SMILES),CC50 [µM]
1,COc1ccc2c(c1)c(C=C1C(=O)NC(=S)NC1=O)cn2C(=O)c1ccccc1Br [Compound 3s],64.3

# Tested on: UACC-62 (Melanoma)
# Assay: five dose-response growth inhibition/cytotoxicity, UACC-62
# Assay type: cell-based, human
# Conditions: not given
row,Structure (SMILES),GI50 [µM]
1,COc1ccc2c(c1)c(C=C1C(=O)NC(=S)NC1=O)cn2C(=O)c1ccccc1Br [Compound 3s],3.38

# Same assay, conditions: read-out: LC50 (the source's name)
row,Structure (SMILES),CC50 [µM]
1,COc1ccc2c(c1)c(C=C1C(=O)NC(=S)NC1=O)cn2C(=O)c1ccccc1Br [Compound 3s],39.6

# Tested on: CCRF-CEM (Leukemia)
# Assay: five dose-response growth inhibition/cytotoxicity, CCRF-CEM
# Assay type: cell-based, human
# Conditions: not given
row,Structure (SMILES),GI50 [µM]
1,COc1ccc2c(c1)c(C=C1C(=O)NC(=S)NC1=O)cn2C(=O)c1ccccc1Br [Compound 3s],4

# Same assay, conditions: read-out: LC50 (the source's name)
row,Structure (SMILES),CC50 [µM]
1,COc1ccc2c(c1)c(C=C1C(=O)NC(=S)NC1=O)cn2C(=O)c1ccccc1Br [Compound 3s],> 100

# Tested on: OVCAR-3 (Ovarian Cancer)
# Assay: five dose-response growth inhibition/cytotoxicity, OVCAR-3
# Assay type: cell-based, human
# Conditions: not given
row,Structure (SMILES),GI50 [µM]
1,COc1ccc2c(c1)c(C=C1C(=O)NC(=S)NC1=O)cn2C(=O)c1ccccc1Br [Compound 3s],2.77

# Same assay, conditions: read-out: LC50 (the source's name)
row,Structure (SMILES),CC50 [µM]
1,COc1ccc2c(c1)c(C=C1C(=O)NC(=S)NC1=O)cn2C(=O)c1ccccc1Br [Compound 3s],33.1

# Tested on: SR (Leukemia)
# Assay: five dose-response growth inhibition/cytotoxicity, SR
# Assay type: cell-based, human
# Conditions: not given
row,Structure (SMILES),GI50 [µM]
1,COc1ccc2c(c1)c(C=C1C(=O)NC(=S)NC1=O)cn2C(=O)c1ccccc1Br [Compound 3s],2.55

# Same assay, conditions: read-out: LC50 (the source's name)
row,Structure (SMILES),CC50 [µM]
1,COc1ccc2c(c1)c(C=C1C(=O)NC(=S)NC1=O)cn2C(=O)c1ccccc1Br [Compound 3s],> 100

# Tested on: HL-60(TB) (Leukemia)
# Assay: not given
# Conditions: not given
row,Structure (SMILES),GI50 [µM]
1,COc1ccc2c(c1)c(C=C1C(=O)NC(=S)NC1=O)cn2C(=O)c1ccccc1Br [Compound 3s],3.24

# Same assay, conditions: read-out: LC50
row,Structure (SMILES),CC50 [µM]
1,COc1ccc2c(c1)c(C=C1C(=O)NC(=S)NC1=O)cn2C(=O)c1ccccc1Br [Compound 3s],> 100

# Tested on: U251 (CNS Cancer)
# Assay: five dose-response growth inhibition/cytotoxicity, U251
# Assay type: cell-based, human
# Conditions: not given
row,Structure (SMILES),GI50 [µM]
1,COc1ccc2c(c1)c(C=C1C(=O)NC(=S)NC1=O)cn2C(=O)c1ccccc1Br [Compound 3s],3.09

# Same assay, conditions: read-out: LC50 (the source's name)
row,Structure (SMILES),CC50 [µM]
1,COc1ccc2c(c1)c(C=C1C(=O)NC(=S)NC1=O)cn2C(=O)c1ccccc1Br [Compound 3s],42.1

# Tested on: LOX IMVI (Melanoma)
# Assay: five dose-response growth inhibition/cytotoxicity, LOX IMVI
# Assay type: cell-based, human
# Conditions: not given
row,Structure (SMILES),GI50 [µM]
1,COc1ccc2c(c1)c(C=C1C(=O)NC(=S)NC1=O)cn2C(=O)c1ccccc1Br [Compound 3s],2.92

# Same assay, conditions: read-out: LC50 (the source's name)
row,Structure (SMILES),CC50 [µM]
1,COc1ccc2c(c1)c(C=C1C(=O)NC(=S)NC1=O)cn2C(=O)c1ccccc1Br [Compound 3s],47.9

# Tested on: MDA-MB-435 (Melanoma)
# Assay: five dose-response growth inhibition/cytotoxicity, MDA-MB-435
# Assay type: cell-based, human
# Conditions: MDA-MB-435
row,Structure (SMILES),GI50 [µM]
1,COc1ccc2c(c1)c(C=C1C(=O)NC(=S)NC1=O)cn2C(=O)c1ccccc1Br [Compound 3s],1.77

# Same assay, conditions: MDA-MB-435; read-out: LC50 (the source's name)
row,Structure (SMILES),CC50 [µM]
1,COc1ccc2c(c1)c(C=C1C(=O)NC(=S)NC1=O)cn2C(=O)c1ccccc1Br [Compound 3s],8.43

# Tested on: DU-145 (Prostrate Cancer)
# Assay: five dose-response growth inhibition/cytotoxicity, DU-145
# Assay type: cell-based, human
# Conditions: not given
row,Structure (SMILES),GI50 [µM]
1,COc1ccc2c(c1)c(C=C1C(=O)NC(=S)NC1=O)cn2C(=O)c1ccccc1Br [Compound 3s],3.01

# Same assay, conditions: read-out: LC50 (the source's name)
row,Structure (SMILES),CC50 [µM]
1,COc1ccc2c(c1)c(C=C1C(=O)NC(=S)NC1=O)cn2C(=O)c1ccccc1Br [Compound 3s],53.6

# Tested on: K-562 (Leukemia)
# Assay: five dose-response growth inhibition/cytotoxicity, K-562
# Assay type: cell-based, human
# Conditions: not given
row,Structure (SMILES),GI50 [µM]
1,COc1ccc2c(c1)c(C=C1C(=O)NC(=S)NC1=O)cn2C(=O)c1ccccc1Br [Compound 3s],3.8

# Same assay, conditions: read-out: LC50 (the source's name)
row,Structure (SMILES),CC50 [µM]
1,COc1ccc2c(c1)c(C=C1C(=O)NC(=S)NC1=O)cn2C(=O)c1ccccc1Br [Compound 3s],> 100

# Tested on: KM-12 (Colon Cancer)
# Assay: not given
# Conditions: not given
row,Structure (SMILES),GI50 [µM]
1,COc1ccc2c(c1)c(C=C1C(=O)NC(=S)NC1=O)cn2C(=O)c1ccccc1Br [Compound 3s],3.87

# Same assay, conditions: read-out: LC50
row,Structure (SMILES),CC50 [µM]
1,COc1ccc2c(c1)c(C=C1C(=O)NC(=S)NC1=O)cn2C(=O)c1ccccc1Br [Compound 3s],51.9
